Earlier results, collected in patent US20260263393A1, “CO[…], […] COMBINATION WITH N-ACYLETHANOLAMINES, AND USES THEREOF” (Clearmind Labs Corp., priority 2023, published 2026).

Settings: ibogaine administered to treat drug dependence

## CC[C@H]1CC2C[C@H]3c4[nH]c5ccc(OC)cc5c4CC[N@@](C2)C13 [ibogaine, Ibogaine]
  reduction in drug craving (duration): up to several weeks
  sustained resolution of the withdrawal syndromes (time to): 12 to 18 h
